Test results as given in US20250129121A1, “POLYPEPTIDE, PRODUCT INCLUDING POLYPEPTIDE FOR INHIBITING FUSOBACTERIUM NUCLEATUM, OR DRUG FOR PREVENTING COLORECTAL CANCER” (priority 2022, published 2025).
≈ marks a conversion by molar mass, not a printed value. Where a SMILES comes first, the peptide text is derived from it.

Legend:
[1] = test system: Bifidobacterium longum 6194; format: cell-based; conditions: 20 h
Description: (§1) A. Each polypeptide was prepared into a specified stock solution for later use. Minimum inhibitory concentrations (MICs) of the polypeptides P1 to P12 were determined by a broth microdilution method. With 0.01% acetic acid (including 0.2% of bovine serum albumin (BSA)) as a diluent, a series of gradient antimicrobial peptide solutions were prepared by a two-fold dilution method.
(§2) B. 100 μL of each polypeptide stock solution was taken and added to a 96-well cell culture plate, and then each strain solution to be tested (about 10^5/mL) was added in an equal volume to each well. A positive control (including a strain solution, but not including a polypeptide) and a negative control (including neither a strain solution nor a polypeptide). Strains to be tested include Escherichia coli Nissile 1917, Vibrio cholerae H1, Pseudomonas aeruginosa PAO1, F. nucleatum 25586, F. nucleatum 10953, Bifidobacterium uniformis 6597, Lactobacillus acidophilus 6075, Bifidobacterium longum 6194Lactobacillus rhamnosus 6141, and Streptococcus agalactiae H94.
(§3) C. The cell culture plate was incubated at a constant temperature of 37° C. for 20 h, and MIC was recorded when the turbidity was not observed by naked eyes at a bottom of a well. The strains all were purchased from the market.

[2] = test system: Bifidobacterium uniformis 6597; format: cell-based; conditions: 20 h
Description: as §1, §2, §3

[3] = test system: Escherichia coli Nissile 1917; format: cell-based; conditions: Nissile 1917, 20 h
Description: as §1, §2, §3

[4] = test system: Lactobacillus acidophilus 6075; format: cell-based; conditions: 20 h
Description: as §1, §2, §3

[5] = test system: Lactobacillus rhamnosus 6141; format: cell-based; conditions: 20 h
Description: as §1, §2, §3

[6] = test system: Pseudomonas aeruginosa PAO1; format: cell-based; conditions: PAO1, 20 h
Description: as §1, §2, §3

[7] = test system: Streptococcus agalactiae H94; format: cell-based; conditions: H94, 20 h
Description: as §1, §2, §3

F. nucleatum 10953 = format: cell-based, Fusobacterium nucleatum; conditions: 10953, 20 h
Description: as §1, §2, §3

F. nucleatum 25586 = format: cell-based, Fusobacterium nucleatum; conditions: 25586, 20 h
Description: as §1, §2, §3

other strains = test: Antimicrobial activity against strains other than F. nucleatum (bactericidal specificity); format: cell-based; conditions: test strains other than F. nucleatum
Description: as §1, §2, §3

[8] = test system: F. nucleatum-induced colorectal cancer; test: F. nucleatum-enhanced colorectal cancer animal model; format: in vivo, C57BL APC^min mouse; conditions: 20 mg/kg per day intragastrically for 7 d, compared with Fn+H2O group
Text: A. To verify the antibacterial effects of the F. nucleatum-specific antimicrobial peptides in vivo for F. nucleatum and especially the preventive effects of the F. nucleatum-specific antimicrobial peptides for F. nucleatum-induced diseases, an F. nucleatum-enhanced colorectal cancer animal model (i.e. the C57BL APC^min mouse orally administered with F. nucleatum) was adopted in this example. As shown in FIG. 20: C57BL APC^min mice were selected and intragastrically administered with F. nucleatum 25586 three times a week as an F. nucleatum intragastric administration group. Mice in a control group were intragastrically administered with an equal amount of PBS every week (PBS intragastric administration group). On the second day of intragastric administration in the first week, mice each were treated with 2.5% dextran sulfate sodium (DSS) consecutively for 3 d to improve the colonization of F. nucleatum. B. Mice were intragastrically administered with the antimicrobial peptide P8 or P11 for treatment in the sixth week, and mice in the control group were intragastrically administered with pure water. Each mouse was intragastrically administered at 20 mg/kg per day consecutively for 7 d. Then, mice were euthanized, and the tumor number and size were recorded.

| MIC Bifidobacterium longum 6194 [1] [µM] | MIC Bifidobacteriu muniformis 6597 [2] [µM] | MIC Escherichia coli nissile1917 [3] [µM] | MIC Lactobacillus acidophilus 6075 [4] [µM] | MIC Lactobacterium rhamnosus 6141 [5] [µM] | MIC Pseudomonas aeruginosa PAO1 [6] [µM] | MIC Streptococcus agalactiae H94 [7] [µM] | MIC Fusobacterium nucleatum 10953 (F. nucleatum 10953) [µM] | MIC Fusobacterium nucleatum 25586 (F. nucleatum 25586) [µM] | SMILES | antimicrobial activity against other strains (other strains) | tumor diameter [8] | tumor number [8] |
| --- | --- | --- | --- | --- | --- | --- | --- | --- | --- | --- | --- | --- |
| 64 (≈ 191 µg/mL) | >64 | >64 | 64 (≈ 191 µg/mL) | >64 | >64 | >64 | 64 (≈ 191 µg/mL) | 64 (≈ 191 µg/mL) | N=C(N)NCCC[C@H](NC(=O)CNC(=O)[C@@H]1CCCN1C(=O)[C@H](CCCNC(=N)N)NC(=O)[C@H](Cc1c[nH]c2ccccc12)NC(=O)[C@H](Cc1c[nH]cn1)NC(=O)[C@H](Cc1c[nH]c2ccccc12)NC(=O)[C@H](Cc1c[nH]c2ccccc12)NC(=O)[C@H](Cc1c[nH]cn1)NC(=O)[C@H](Cc1c[nH]c2ccccc12)NC(=O)[C@H](CCCNC(=N)N)NC(=O)CNC(=O)[C@@H]1CCCN1C(=O)[C@H](CCCNC(=N)N)NC(=O)[C@H](Cc1c[nH]c2ccccc12)NC(=O)[C@H](Cc1c[nH]cn1)NC(=O)[C@@H](N)Cc1c[nH]c2ccccc12)C(=O)N[C@@H](Cc1c[nH]c2ccccc12)C(=O)N[C@@H](Cc1c[nH]cn1)C(=O)N[C@@H](Cc1c[nH]c2ccccc12)C(=O)O [P9] (H-WHWRPGRWHWWHWRPGRWHW-OH; N-terminus assumed) |  |  |  |
| >64 | 64 (≈ 95.1 µg/mL) | 64 (≈ 95.1 µg/mL) | 64 (≈ 95.1 µg/mL) | >64 | >64 | >64 | 16 (≈ 23.8 µg/mL) | 8 (≈ 11.9 µg/mL) | N=C(N)NCCC[C@H](NC(=O)CNC(=O)[C@@H]1CCCN1C(=O)[C@H](CCCNC(=N)N)NC(=O)[C@H](Cc1c[nH]c2ccccc12)NC(=O)[C@H](CCCCN)NC(=O)[C@@H](N)Cc1c[nH]c2ccccc12)C(=O)N[C@@H](Cc1c[nH]c2ccccc12)C(=O)N[C@@H](CCCCN)C(=O)N[C@@H](Cc1c[nH]c2ccccc12)C(=O)O [P10, WKWRPGRWKW] (H-WKWRPGRWKW-OH; N-terminus assumed) |  |  |  |
| 16 (≈ 47.3 µg/mL) | 64 (≈ 189 µg/mL) | 32 (≈ 94.5 µg/mL) | 32 (≈ 94.5 µg/mL) | >64 | 32 (≈ 94.5 µg/mL) | 2 (≈ 5.91 µg/mL) | 2 (≈ 5.91 µg/mL) | 2 (≈ 5.91 µg/mL) | N=C(N)NCCC[C@H](NC(=O)CNC(=O)[C@@H]1CCCN1C(=O)[C@H](CCCNC(=N)N)NC(=O)[C@H](Cc1c[nH]c2ccccc12)NC(=O)[C@H](CCCCN)NC(=O)[C@H](Cc1c[nH]c2ccccc12)NC(=O)[C@H](Cc1c[nH]c2ccccc12)NC(=O)[C@H](CCCCN)NC(=O)[C@H](Cc1c[nH]c2ccccc12)NC(=O)[C@H](CCCNC(=N)N)NC(=O)CNC(=O)[C@@H]1CCCN1C(=O)[C@H](CCCNC(=N)N)NC(=O)[C@H](Cc1c[nH]c2ccccc12)NC(=O)[C@H](CCCCN)NC(=O)[C@@H](N)Cc1c[nH]c2ccccc12)C(=O)N[C@@H](Cc1c[nH]c2ccccc12)C(=O)N[C@@H](CCCCN)C(=O)N[C@@H](Cc1c[nH]c2ccccc12)C(=O)O [P12] (H-WKWRPGRWKWWKWRPGRWKW-OH; N-terminus assumed) |  |  |  |

| SMILES | MIC Bifidobacterium longum 6194 [1] [µM] | MIC Bifidobacteriu muniformis 6597 [2] [µM] | MIC Escherichia coli nissile1917 [3] [µM] | MIC Lactobacillus acidophilus 6075 [4] [µM] | MIC Lactobacterium rhamnosus 6141 [5] [µM] | MIC Pseudomonas aeruginosa PAO1 [6] [µM] | MIC Streptococcus agalactiae H94 [7] [µM] | MIC Fusobacterium nucleatum 10953 (F. nucleatum 10953) [µM] | MIC Fusobacterium nucleatum 25586 (F. nucleatum 25586) [µM] | antimicrobial activity against other strains (other strains) | tumor diameter [8] | tumor number [8] |
| --- | --- | --- | --- | --- | --- | --- | --- | --- | --- | --- | --- | --- |
| N=C(N)NCCC[C@H](NC(=O)CNC(=O)[C@@H]1CCCN1C(=O)[C@H](CCCNC(=N)N)NC(=O)[C@H](Cc1c[nH]c2ccccc12)NC(=O)[C@H](Cc1c[nH]cn1)NC(=O)[C@H](Cc1c[nH]c2ccccc12)NC(=O)[C@H](CCCNC(=N)N)NC(=O)[C@H](Cc1c[nH]c2ccccc12)NC(=O)[C@H](Cc1c[nH]cn1)NC(=O)[C@@H](N)Cc1c[nH]c2ccccc12)C(=O)N[C@@H](Cc1c[nH]c2ccccc12)C(=O)N[C@@H](Cc1c[nH]cn1)C(=O)N[C@@H](Cc1c[nH]c2ccccc12)C(=O)N[C@@H](CCCNC(=N)N)C(=O)N[C@@H](Cc1c[nH]c2ccccc12)C(=O)N[C@@H](Cc1c[nH]cn1)C(=O)N[C@@H](Cc1c[nH]c2ccccc12)C(=O)O [P8, WHWRWHWRPGRWHWRWHW] (H-WHWRWHWRPGRWHWRWHW-OH; N-terminus assumed) | >64 | >64 | >64 | 32 (≈ 90.7 µg/mL) | >64 | >64 | >64 | 4 (≈ 11.3 µg/mL) | 8 (≈ 22.7 µg/mL) | weak antimicrobial activity | relatively small | relatively small |
| N=C(N)NCCC[C@H](NC(=O)CNC(=O)[C@@H]1CCCN1C(=O)[C@H](CCCNC(=N)N)NC(=O)[C@H](Cc1c[nH]c2ccccc12)NC(=O)[C@H](CCCCN)NC(=O)[C@H](Cc1c[nH]c2ccccc12)NC(=O)[C@H](CCCNC(=N)N)NC(=O)[C@H](Cc1c[nH]c2ccccc12)NC(=O)[C@H](CCCCN)NC(=O)[C@@H](N)Cc1c[nH]c2ccccc12)C(=O)N[C@@H](Cc1c[nH]c2ccccc12)C(=O)N[C@@H](CCCCN)C(=O)N[C@@H](Cc1c[nH]c2ccccc12)C(=O)N[C@@H](CCCNC(=N)N)C(=O)N[C@@H](Cc1c[nH]c2ccccc12)C(=O)N[C@@H](CCCCN)C(=O)N[C@@H](Cc1c[nH]c2ccccc12)C(=O)O [P11, WKWRWKWRPGRWKWRWKW] (H-WKWRWKWRPGRWKWRWKW-OH; N-terminus assumed) | 16 (≈ 44.8 µg/mL) | 8 (≈ 22.4 µg/mL) | 64 (≈ 179 µg/mL) | 32 (≈ 89.6 µg/mL) | >64 | 32 (≈ 89.6 µg/mL) | 64 (≈ 179 µg/mL) | 16 (≈ 44.8 µg/mL) | 4 (≈ 11.2 µg/mL) | weak antimicrobial activity | relatively small | relatively small |
